# Assay results: patent US11109593B2, “Isoxazolin-5-one derivative and herbicide containing same as active ingredient” (HOKKO CHEMICAL INDUSTRY CO., LTD., priority 2017, dated 2021)
# How the values were obtained:
# Assay type in all cases: in vivo
# [1] = test system: broad leaf weeds (Lindernia pyxidaria and Monochoria vaginalis); experiment: Test Example 1: herbicidal effect test by treatment of rice paddy soil (immediately after seeding)
# Method in brief: (§1)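 Puddled, fertilized (N:P:K=17:17:17) paddy soil in Wagner pots; seeds sown 0–1 cm deep, flooded to about 3 cm. Emulsifiable formulations diluted in water and dropped into the water immediately after seeding at 120 g active ingredient per 10 ares; greenhouse. Herbicidal rate from dry weight vs untreated at 14 days.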
# [2] = test system: Scirpus juncoides; experiment: as above
# Method in brief: as §1
# [3] = test system: Echinochloa crus-galli; experiment: as above
# Method in brief: as §1
# [4] = test system: southern crabgrass; experiment: Test Example 4: herbicidal effect test by treatment of leave and stem in dry field farming (seven days after seeding); settings: 120 g/10a active ingredient; emulsion sprayed seven days after seeding; evaluated 14 days after treatment
# Method in brief: (§2)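 Twenty seeds per species were mixed into the top 1 cm of alluvial soil in 36 cm^2 pots; emulsions were sprayed seven days after seeding at 100 L per 10 ares (120 g active ingredient per 10 ares). Herbicidal rate (%) = {1 − treated/untreated mean dry weight} × 100, 14 days after treatment, duplicate.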
# [5] = test system: Amaranthus viridis; experiment: as above; settings: 120 g/10a active ingredient; emulsion sprayed seven days after seeding; evaluated 14 days after treatment
# Method in brief: as §2
# [6] = test system: Chenopodium album; experiment: as above; settings: 120 g/10a active ingredient; emulsion sprayed seven days after seeding; evaluated 14 days after treatment
# Method in brief: as §2
# [7] = test system: Echinochloa crus-galli; experiment: as above; settings: 120 g/10a active ingredient; emulsion sprayed seven days after seeding; evaluated 14 days after treatment
# Method in brief: as §2
# [8] = test system: broad leaf weeds (Lindernia pyxidaria and Monochoria vaginalis); experiment: Test Example 2: herbicidal effect test by treatment during growing period in paddy rice cultivation (seven days after seeding); settings: for Herbicidal rate (%) Lindernia pyxidaria / Herbicidal rate (%) Monochoria vaginalis: 120 g/10a active ingredient, assessed 14 days after treatment, dry weight vs untreated area
# Method in brief: (§3)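 Seeds sown 0–1 cm deep in puddled, fertilised paddy soil with about 3 cm standing water in a glass greenhouse. Diluted emulsion dropped into the water seven days after seeding at 120 g active ingredient per 10 ares. Herbicidal rate (%) from mean dry weight vs untreated, duplicate, 14 days after treatment.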
# [9] = test system: Scirpus juncoides; experiment: as above; settings: for Herbicidal rate (%) Scirpus juncoides: 120 g/10a active ingredient, assessed 14 days after treatment, dry weight vs untreated area
# Method in brief: as §3
# [10] = test system: Echinochloa crus-galli; experiment: as above; settings: for Herbicidal rate (%) Echinochloa crus-galli: 120 g/10a active ingredient, assessed 14 days after treatment, dry weight vs untreated area
# Method in brief: as §3
# [11] = test system: southern crabgrass; experiment: Test Example 3: herbicidal effect test by treatment of dry field farming soil (one day after seeding); settings: 120 g/10a active ingredient, evaluated 14 days after treatment
# Method in brief: (§4)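 Alluvial dry-field soil in pots, top 1 cm mixed with 20 seeds per weed species. One day after seeding, the water-diluted emulsion was sprayed onto the soil surface at 100 L per 10 ares (120 g active ingredient per 10 ares). Duplicate pots; herbicidal rate (%) from plant dry weight versus untreated, 14 days after treatment.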
# [12] = test system: Amaranthus viridis; experiment: as above; settings: 120 g/10a active ingredient, evaluated 14 days after treatment
# Method in brief: as §4
# [13] = test system: Chenopodium album; experiment: as above; settings: 120 g/10a active ingredient, evaluated 14 days after treatment
# Method in brief: as §4
# [14] = test system: Echinochloa crus-galli; experiment: as above; settings: 120 g/10a active ingredient, evaluated 14 days after treatment
# Method in brief: as §4
# [15] = Lindernia pyxidaria, 120 g/10a active ingredient, dry weight vs untreated area, 14 days after treatment
# [16] = Monochoria vaginalis, 120 g/10a active ingredient, dry weight vs untreated area, 14 days after treatment
# [17] = 120 g/10a active ingredient, dry weight vs untreated area, 14 days after treatment
# [18] = 120 g/10a active ingredient, 14 days after treatment, dry weight vs untreated area
# [19] = 120 g/10a, rated 14 days after treatment, paddy soil pots
smiles,measurement,setting,value
"CCC(C)n1oc(=O)c(Cc2ccccc2N(C(=O)OCc2ccccc2)S(=O)(=O)C(F)(F)F)c1C (single isomer, unassigned) [1-783 (TLC bottom)]",Herbicidal rate (%) Lindernia pyxidaria,[1]; [15],90%
same,Herbicidal rate (%) Monochoria vaginalis,[1]; [16],90%
same,Herbicidal rate (%) Scirpus juncoides,[2]; [17],90%
same,Herbicidal rate (%) Echinochloa crus-galli,[3]; [17],90%
same,"herbicidal effect (herbicidal rate), southern crabgrass",[4],90%
same,"herbicidal effect (herbicidal rate), Amaranthus viridis",[5],40%
same,"herbicidal effect (herbicidal rate), Chenopodium album",[6],40%
same,"herbicidal effect (herbicidal rate), Echinochloa crus-galli",[7],90%
same,Herbicidal rate (%) Lindernia pyxidaria,[8]; Lindernia pyxidaria,90%
same,Herbicidal rate (%) Monochoria vaginalis,[8]; Monochoria vaginalis,90%
same,Herbicidal rate (%) Scirpus juncoides,[9],90%
same,Herbicidal rate (%) Echinochloa crus-galli,[10],90%
same,"herbicidal rate, southern crabgrass",[11],90%
same,"herbicidal rate, Amaranthus viridis",[12],90%
same,"herbicidal rate, Chenopodium album",[13],90%
same,"herbicidal rate, Echinochloa crus-galli",[14],90%
Cc1ccc(S(=O)(=O)N(c2ccccc2Cc2c(C)n(C(C)C)oc2=O)S(=O)(=O)C(F)(F)F)cc1 [Compound 1-1127],Herbicidal rate (%) Lindernia pyxidaria,"[1]; Lindernia pyxidaria, 120 g/10a active ingredient, 14 days after treatment, dry weight vs untreated area",100%
same,Herbicidal rate (%) Monochoria vaginalis,"[1]; Monochoria vaginalis, 120 g/10a active ingredient, 14 days after treatment, dry weight vs untreated area",100%
same,Herbicidal rate (%) Scirpus juncoides,[2]; [18],90%
same,Herbicidal rate (%) Echinochloa crus-galli,[3]; [18],100%
same,"herbicidal effect (herbicidal rate), southern crabgrass",[4],40%
same,"herbicidal effect (herbicidal rate), Amaranthus viridis",[5],40%
same,"herbicidal effect (herbicidal rate), Chenopodium album",[6],40%
same,"herbicidal effect (herbicidal rate), Echinochloa crus-galli",[7],90%
same,"herbicidal rate, Lindernia pyxidaria","[8]; Lindernia pyxidaria, 120 g/10a, rated 14 days after treatment, paddy soil pots",100%
same,"herbicidal rate, Monochoria vaginalis","[8]; Monochoria vaginalis, 120 g/10a, rated 14 days after treatment, paddy soil pots",100%
same,"herbicidal rate, Scirpus juncoides",[9]; [19],90%
same,"herbicidal rate, Echinochloa crus-galli",[10]; [19],100%
same,"herbicidal rate, southern crabgrass",[11],70%
same,"herbicidal rate, Amaranthus viridis",[12],40%
same,"herbicidal rate, Chenopodium album",[13],60%
same,"herbicidal rate, Echinochloa crus-galli",[14],90%
COCC(C)n1oc(=O)c(Cc2ccccc2N(S(C)(=O)=O)S(=O)(=O)C(F)(F)F)c1C (stereo not drawn) [Compound 1-899],Herbicidal rate (%) Lindernia pyxidaria,[1]; [15],90%
same,Herbicidal rate (%) Monochoria vaginalis,[1]; [16],90%
same,Herbicidal rate (%) Scirpus juncoides,[2]; [17],90%
same,Herbicidal rate (%) Echinochloa crus-galli,[3]; [17],90%
same,"herbicidal effect (herbicidal rate), southern crabgrass",[4],90%
same,"herbicidal effect (herbicidal rate), Amaranthus viridis",[5],40%
same,"herbicidal effect (herbicidal rate), Chenopodium album",[6],40%
same,"herbicidal effect (herbicidal rate), Echinochloa crus-galli",[7],90%
same,Herbicidal rate (%) Lindernia pyxidaria,[8]; Lindernia pyxidaria,90%
same,Herbicidal rate (%) Monochoria vaginalis,[8]; Monochoria vaginalis,90%
same,Herbicidal rate (%) Scirpus juncoides,[9],90%
same,Herbicidal rate (%) Echinochloa crus-galli,[10],90%
same,"herbicidal rate, southern crabgrass",[11],90%
same,"herbicidal rate, Amaranthus viridis",[12],90%
same,"herbicidal rate, Chenopodium album",[13],90%
same,"herbicidal rate, Echinochloa crus-galli",[14],90%
Cc1c(Cc2ccccc2N(C(=O)C2CC2)S(=O)(=O)C(F)(F)F)c(=O)on1CC(C)(C)C [Compound 1-407],Herbicidal rate (%) Lindernia pyxidaria,[1]; [15],90%
same,Herbicidal rate (%) Monochoria vaginalis,[1]; [16],90%
same,Herbicidal rate (%) Scirpus juncoides,[2]; [17],90%
same,Herbicidal rate (%) Echinochloa crus-galli,[3]; [17],90%
same,"herbicidal effect (herbicidal rate), southern crabgrass",[4],90%
same,"herbicidal effect (herbicidal rate), Amaranthus viridis",[5],40%
same,"herbicidal effect (herbicidal rate), Chenopodium album",[6],40%
same,"herbicidal effect (herbicidal rate), Echinochloa crus-galli",[7],90%
same,Herbicidal rate (%) Lindernia pyxidaria,[8]; Lindernia pyxidaria,90%
same,Herbicidal rate (%) Monochoria vaginalis,[8]; Monochoria vaginalis,90%
same,Herbicidal rate (%) Scirpus juncoides,[9],90%
same,Herbicidal rate (%) Echinochloa crus-galli,[10],90%
same,"herbicidal rate, southern crabgrass",[11],90%
same,"herbicidal rate, Amaranthus viridis",[12],90%
same,"herbicidal rate, Chenopodium album",[13],90%
same,"herbicidal rate, Echinochloa crus-galli",[14],90%
CCC(CC)n1oc(=O)c(Cc2ccccc2NS(=O)(=O)C(F)(F)F)c1C [Compound 1-103],Herbicidal rate (%) Lindernia pyxidaria,[1]; [15],80%
same,Herbicidal rate (%) Monochoria vaginalis,[1]; [16],100%
same,Herbicidal rate (%) Scirpus juncoides,[2]; [17],90%
same,Herbicidal rate (%) Echinochloa crus-galli,[3]; [17],100%
same,"herbicidal effect (herbicidal rate), southern crabgrass",[4],90%
same,"herbicidal effect (herbicidal rate), Amaranthus viridis",[5],90%
same,"herbicidal effect (herbicidal rate), Chenopodium album",[6],40%
same,"herbicidal effect (herbicidal rate), Echinochloa crus-galli",[7],90%
same,Herbicidal rate (%) Lindernia pyxidaria,[8]; Lindernia pyxidaria,60%
same,Herbicidal rate (%) Monochoria vaginalis,[8]; Monochoria vaginalis,80%
same,Herbicidal rate (%) Scirpus juncoides,[9],80%
same,Herbicidal rate (%) Echinochloa crus-galli,[10],90%
same,"herbicidal rate, southern crabgrass",[11],100%
same,"herbicidal rate, Amaranthus viridis",[12],100%
same,"herbicidal rate, Chenopodium album",[13],100%
same,"herbicidal rate, Echinochloa crus-galli",[14],100%
CCCC(C)n1oc(=O)c(Cc2ccccc2N(S(=O)(=O)C(F)(F)F)S(=O)(=O)C(F)(F)F)c1C (stereo not drawn) [Compound 1-970],Herbicidal rate (%) Lindernia pyxidaria,[1]; [15],100%
same,Herbicidal rate (%) Monochoria vaginalis,[1]; [16],100%
same,Herbicidal rate (%) Scirpus juncoides,[2]; [17],100%
same,Herbicidal rate (%) Echinochloa crus-galli,[3]; [17],100%
same,"herbicidal effect (herbicidal rate), southern crabgrass",[4],70%
same,"herbicidal effect (herbicidal rate), Amaranthus viridis",[5],60%
same,"herbicidal effect (herbicidal rate), Chenopodium album",[6],40%
same,"herbicidal effect (herbicidal rate), Echinochloa crus-galli",[7],90%
same,Herbicidal rate (%) Lindernia pyxidaria,[8]; Lindernia pyxidaria,70%
same,Herbicidal rate (%) Monochoria vaginalis,[8]; Monochoria vaginalis,90%
same,Herbicidal rate (%) Scirpus juncoides,[9],90%
same,Herbicidal rate (%) Echinochloa crus-galli,[10],100%
same,"herbicidal rate, southern crabgrass",[11],90%
same,"herbicidal rate, Amaranthus viridis",[12],60%
same,"herbicidal rate, Chenopodium album",[13],40%
same,"herbicidal rate, Echinochloa crus-galli",[14],90%
Cc1ccc(C(C)n2oc(=O)c(Cc3ccccc3NS(=O)(=O)C(F)(F)F)c2C)cc1 (stereo not drawn) [Compound 1-208],Herbicidal rate (%) Lindernia pyxidaria,[1]; [15],80%
same,Herbicidal rate (%) Monochoria vaginalis,[1]; [16],90%
same,Herbicidal rate (%) Scirpus juncoides,[2]; [17],90%
same,Herbicidal rate (%) Echinochloa crus-galli,[3]; [17],90%
same,"herbicidal effect (herbicidal rate), southern crabgrass",[4],0%
same,"herbicidal effect (herbicidal rate), Amaranthus viridis",[5],40%
same,"herbicidal effect (herbicidal rate), Chenopodium album",[6],40%
same,"herbicidal effect (herbicidal rate), Echinochloa crus-galli",[7],90%
same,Herbicidal rate (%) Lindernia pyxidaria,[8]; Lindernia pyxidaria,60%
same,Herbicidal rate (%) Monochoria vaginalis,[8]; Monochoria vaginalis,90%
same,Herbicidal rate (%) Scirpus juncoides,[9],80%
same,Herbicidal rate (%) Echinochloa crus-galli,[10],90%
same,"herbicidal rate, southern crabgrass",[11],50%
same,"herbicidal rate, Amaranthus viridis",[12],40%
same,"herbicidal rate, Chenopodium album",[13],40%
same,"herbicidal rate, Echinochloa crus-galli",[14],100%
CCCC(CC)n1oc(=O)c(Cc2ccccc2N(S(=O)(=O)C(F)(F)F)S(=O)(=O)C(F)(F)F)c1C (stereo not drawn) [Compound 1-971],Herbicidal rate (%) Lindernia pyxidaria,[1]; [15],100%
same,Herbicidal rate (%) Monochoria vaginalis,[1]; [16],100%
same,Herbicidal rate (%) Scirpus juncoides,[2]; [17],100%
same,Herbicidal rate (%) Echinochloa crus-galli,[3]; [17],100%
same,"herbicidal effect (herbicidal rate), southern crabgrass",[4],90%
same,"herbicidal effect (herbicidal rate), Amaranthus viridis",[5],40%
same,"herbicidal effect (herbicidal rate), Chenopodium album",[6],50%
same,"herbicidal effect (herbicidal rate), Echinochloa crus-galli",[7],90%
same,Herbicidal rate (%) Lindernia pyxidaria,[8]; Lindernia pyxidaria,80%
same,Herbicidal rate (%) Monochoria vaginalis,[8]; Monochoria vaginalis,90%
same,Herbicidal rate (%) Scirpus juncoides,[9],90%
same,Herbicidal rate (%) Echinochloa crus-galli,[10],100%
same,"herbicidal rate, southern crabgrass",[11],80%
same,"herbicidal rate, Amaranthus viridis",[12],80%
same,"herbicidal rate, Chenopodium album",[13],60%
same,"herbicidal rate, Echinochloa crus-galli",[14],90%
CSCCn1oc(=O)c(Cc2ccccc2N(C(C)=O)S(=O)(=O)C(F)(F)F)c1C [Compound 1-305],Herbicidal rate (%) Lindernia pyxidaria,[1]; [15],90%
same,Herbicidal rate (%) Monochoria vaginalis,[1]; [16],90%
same,Herbicidal rate (%) Scirpus juncoides,[2]; [17],90%
same,Herbicidal rate (%) Echinochloa crus-galli,[3]; [17],90%
same,"herbicidal effect (herbicidal rate), southern crabgrass",[4],90%
same,"herbicidal effect (herbicidal rate), Amaranthus viridis",[5],40%
same,"herbicidal effect (herbicidal rate), Chenopodium album",[6],40%
same,"herbicidal effect (herbicidal rate), Echinochloa crus-galli",[7],90%
same,Herbicidal rate (%) Lindernia pyxidaria,[8]; Lindernia pyxidaria,90%
same,Herbicidal rate (%) Monochoria vaginalis,[8]; Monochoria vaginalis,90%
same,Herbicidal rate (%) Scirpus juncoides,[9],90%
same,Herbicidal rate (%) Echinochloa crus-galli,[10],90%
same,"herbicidal rate, southern crabgrass",[11],90%
same,"herbicidal rate, Amaranthus viridis",[12],90%
same,"herbicidal rate, Chenopodium album",[13],90%
same,"herbicidal rate, Echinochloa crus-galli",[14],90%
